The text below walks through data of ChEMBL document CHEMBL4673253, “Discovery of EST73502, a Dual μ-Opioid Receptor Agonist and σ Receptor Antagonist Clinical Candidate for the Treatment of Pain” (J Med Chem, 2020).

For data set [1], the system named is Mus musculus. Put plainly: Antinociceptive activity in CD1 mouse PSNL model assessed as reduction in mechanical allodynia by measuring decrease in the pressure required to elicit withdrawal of the ipsilateral paw after von Frey filament stimulation at 5 mg/kg, ip BID for 11 days from day 13 to day 22. Particulars: 264 h, time 11 day. Type of data set: functional.

The target in the next data set is CYP2C19 (Homo sapiens, UniProt P33261). Nature of the data set: Inhibition of human CYP2C19 at 1 uM relative to control. Type of data set: ADME.
Another data set concerns the target T1, CYP1A2 (Homo sapiens, UniProt P05177).
T1 sequence (P05177 whole entry): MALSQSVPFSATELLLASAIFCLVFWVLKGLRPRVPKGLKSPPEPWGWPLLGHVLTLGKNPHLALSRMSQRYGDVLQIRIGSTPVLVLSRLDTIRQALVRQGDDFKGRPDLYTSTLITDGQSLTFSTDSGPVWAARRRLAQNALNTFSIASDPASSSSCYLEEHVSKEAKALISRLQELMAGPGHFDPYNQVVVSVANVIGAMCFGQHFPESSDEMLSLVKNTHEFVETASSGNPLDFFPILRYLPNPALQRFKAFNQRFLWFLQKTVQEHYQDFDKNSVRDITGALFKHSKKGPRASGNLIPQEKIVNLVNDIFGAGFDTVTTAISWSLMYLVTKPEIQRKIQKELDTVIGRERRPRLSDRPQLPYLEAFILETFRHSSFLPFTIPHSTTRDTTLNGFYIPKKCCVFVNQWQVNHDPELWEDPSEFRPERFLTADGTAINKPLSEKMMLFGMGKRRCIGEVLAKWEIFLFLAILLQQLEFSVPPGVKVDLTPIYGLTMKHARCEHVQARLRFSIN
Put plainly: Inhibition of human CYP1A2 at 1 uM relative to control. It is filed as ADME.

The target of another data set is CYP2C9 (Homo sapiens, UniProt P11712). Nature of the data set: Inhibition of human CYP2C9 at 1 uM relative to control. Type of data set: ADME.
Data set [2] has as its system Mus musculus. Put plainly: Antinociceptive activity in CD1 mouse at 10 to 40 mg/kg, po co-treated with 64 mg/kg, sc sigma1R agonist PRE-084 by paw pressure test. It is filed as functional. Particulars: dose 10-40 mg/kg.
A short description of data set [3]: Toxicity in CD1 mouse assessed as inhibition of intestinal transit by measuring percentage of distance traveled by charcoal meal at 40 mg/kg, po. To be noted: in vivo. It is filed as organism-based.
Data set [4] can be described thus: Permeability in human Caco-2 cells. Type of data set: ADME, cell-based.
Data set [5] in a line: Toxicity in CD1 mouse PSNL model assessed as induction of opiate withdrawal by measuring expression of some behavioral signs measured immediately after naloxone injection at 5 mg/kg, ip BID for 11 days from day 13 to day 22 and measured on day 23. It is filed as organism-based. To be noted: in vivo, 264 h, time 11 day.
Data set [6] is described as follows: Lipophilicity, logD of compound. Type of data set: physicochemical. Particulars: octanol/water.
Data set [7] in a line: Thermodynamic solubility of compound at pH 7.4. Type of data set: physicochemical. To be noted: buffer, read-out: Therm_solubility.
Data set [8] in a line: Toxicity in CD1 mouse PSNL model assessed as induction of opiate withdrawal by measuring expression of some behavioral signs measured immediately after naloxone injection at 1.25 mg/kg, ip BID for 11 days from day 13 to day 22 and measured on day 23. Type of data set: organism-based. Particulars: in vivo, 264 h, time 11 day.
The subject of data set [9] is HepG2. Put plainly: Toxicity in human HepG2 cells assessed as reduction in cell viability up to 100 uM by MTT assay. Type of data set: cell-based. In general terms: Formazan colour is commonly taken as a measure of viable cells.
In a further data set the target is CYP3A4 (Homo sapiens, UniProt P08684). Put plainly: Inhibition of human CYP3A4 at 1 uM relative to control. Type of data set: ADME.
Data set [10] can be described thus: Intrinsic clearance in human liver microsomes. It is filed as ADME, Microsome. To be noted: read-out: CLH.
The test system of data set [11] is HepG2. Nature of the data set: Toxicity in human HepG2 cells assessed as reduction in cell viability up to 100 uM by neutral red uptake assay. Type of data set: cell-based.
In data set [12] the test system is Mus musculus. Nature of the data set: Antinociceptive activity in orally dosed CD1 mouse assessed as by paw pressure test. Type of data set: functional. To be noted: CD1, po.
A further data set concerns the target hERG (KCNH2) (Homo sapiens, UniProt Q12809). Put plainly: Inhibition of human ERG expressed in CHO cells at 10 uM at -80 mV holding potential by whole cell patch clamp assay. It is filed as cell-based. Particulars: CHO cells expressing human ERG.
Data set [13] deals with Voltage-gated inwardly rectifying potassium channel KCNH2 (Homo sapiens, UniProt Q12809).
Description: Inhibition of human ERG expressed in CHO cells at -80 mV holding potential by whole cell patch clamp assay
A short description of data set [14]: Mutagenicity in Salmonella typhimurium by Ames test. To be noted: salmonella enterica subsp. enterica serovar typhimurium. It is filed as toxicity. (In general: In the Ames test, an excess of revertant colonies over the control signals mutagenicity.)
Data set [15] can be described thus: Distribution coefficient, logD of compound at pH 7.4. Type of data set: physicochemical. To be noted: octanol/water.
For a further data set, the target named is CYP2D6 (Homo sapiens, UniProt P10635). Put plainly: Inhibition of human CYP2D6 at 1 uM relative to control. Type of data set: ADME.
Data set [16] is described as follows: Thermodynamic solubility of compound at pH 2. Type of data set: physicochemical. Particulars: buffer, read-out: Therm_solubility.
The target in data set [17] is T2, Alpha-1A adrenergic receptor (Homo sapiens) (UniProt P35348).
T2 sequence (whole entry): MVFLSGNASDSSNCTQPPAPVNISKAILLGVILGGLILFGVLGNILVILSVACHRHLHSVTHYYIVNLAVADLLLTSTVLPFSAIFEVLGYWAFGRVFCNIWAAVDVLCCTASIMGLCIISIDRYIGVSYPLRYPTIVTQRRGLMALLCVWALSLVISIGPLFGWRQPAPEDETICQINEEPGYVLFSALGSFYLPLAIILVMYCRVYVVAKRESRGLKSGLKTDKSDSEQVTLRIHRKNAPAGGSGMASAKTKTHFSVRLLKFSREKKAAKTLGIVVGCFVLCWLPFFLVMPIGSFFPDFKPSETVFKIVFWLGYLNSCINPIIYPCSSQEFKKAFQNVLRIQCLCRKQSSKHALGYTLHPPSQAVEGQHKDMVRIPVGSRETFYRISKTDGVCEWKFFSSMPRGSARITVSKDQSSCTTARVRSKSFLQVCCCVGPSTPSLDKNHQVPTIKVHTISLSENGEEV
Put plainly: Binding affinity to human alpha1A adrenoreceptor expressed in membranes assessed as inhibition of [3H]-prazosin binding incubated for 90 mins by scintillation counting method. Set-up: concentration or dose not given beside the values. Particulars: Cell membrane.

One may read the inhibition in vivo as the change of the read-out against control, counted positive when it falls. One may read the inhibition as the relative decrease from the control value, in per cent. The term Emax denotes the greatest response seen or fitted, relative to the assay's reference. The Papp is a coefficient for how fast a substance crosses the barrier. The term logD denotes lipophilicity at a set pH, counting ionised and neutral species. By IC50 is commonly meant the concentration that gives 50% inhibition.

Converted amounts (≈) assume the structure as drawn.

CYP3A4, sequence (P08684 whole entry): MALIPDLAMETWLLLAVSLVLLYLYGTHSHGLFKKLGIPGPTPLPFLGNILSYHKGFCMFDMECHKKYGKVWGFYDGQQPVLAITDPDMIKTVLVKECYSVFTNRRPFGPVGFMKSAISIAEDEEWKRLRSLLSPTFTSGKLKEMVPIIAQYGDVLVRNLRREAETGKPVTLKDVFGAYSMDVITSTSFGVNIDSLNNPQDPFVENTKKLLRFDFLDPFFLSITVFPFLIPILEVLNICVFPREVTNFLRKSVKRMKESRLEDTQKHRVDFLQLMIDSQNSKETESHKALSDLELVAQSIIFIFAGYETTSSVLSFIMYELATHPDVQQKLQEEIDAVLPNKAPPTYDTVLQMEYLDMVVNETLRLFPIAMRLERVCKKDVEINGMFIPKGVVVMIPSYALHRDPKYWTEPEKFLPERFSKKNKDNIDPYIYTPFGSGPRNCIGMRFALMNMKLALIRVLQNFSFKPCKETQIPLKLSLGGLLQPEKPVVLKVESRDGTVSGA
Voltage-gated inwardly rectifying potassium channel KCNH2, sequence (Q12809 whole entry): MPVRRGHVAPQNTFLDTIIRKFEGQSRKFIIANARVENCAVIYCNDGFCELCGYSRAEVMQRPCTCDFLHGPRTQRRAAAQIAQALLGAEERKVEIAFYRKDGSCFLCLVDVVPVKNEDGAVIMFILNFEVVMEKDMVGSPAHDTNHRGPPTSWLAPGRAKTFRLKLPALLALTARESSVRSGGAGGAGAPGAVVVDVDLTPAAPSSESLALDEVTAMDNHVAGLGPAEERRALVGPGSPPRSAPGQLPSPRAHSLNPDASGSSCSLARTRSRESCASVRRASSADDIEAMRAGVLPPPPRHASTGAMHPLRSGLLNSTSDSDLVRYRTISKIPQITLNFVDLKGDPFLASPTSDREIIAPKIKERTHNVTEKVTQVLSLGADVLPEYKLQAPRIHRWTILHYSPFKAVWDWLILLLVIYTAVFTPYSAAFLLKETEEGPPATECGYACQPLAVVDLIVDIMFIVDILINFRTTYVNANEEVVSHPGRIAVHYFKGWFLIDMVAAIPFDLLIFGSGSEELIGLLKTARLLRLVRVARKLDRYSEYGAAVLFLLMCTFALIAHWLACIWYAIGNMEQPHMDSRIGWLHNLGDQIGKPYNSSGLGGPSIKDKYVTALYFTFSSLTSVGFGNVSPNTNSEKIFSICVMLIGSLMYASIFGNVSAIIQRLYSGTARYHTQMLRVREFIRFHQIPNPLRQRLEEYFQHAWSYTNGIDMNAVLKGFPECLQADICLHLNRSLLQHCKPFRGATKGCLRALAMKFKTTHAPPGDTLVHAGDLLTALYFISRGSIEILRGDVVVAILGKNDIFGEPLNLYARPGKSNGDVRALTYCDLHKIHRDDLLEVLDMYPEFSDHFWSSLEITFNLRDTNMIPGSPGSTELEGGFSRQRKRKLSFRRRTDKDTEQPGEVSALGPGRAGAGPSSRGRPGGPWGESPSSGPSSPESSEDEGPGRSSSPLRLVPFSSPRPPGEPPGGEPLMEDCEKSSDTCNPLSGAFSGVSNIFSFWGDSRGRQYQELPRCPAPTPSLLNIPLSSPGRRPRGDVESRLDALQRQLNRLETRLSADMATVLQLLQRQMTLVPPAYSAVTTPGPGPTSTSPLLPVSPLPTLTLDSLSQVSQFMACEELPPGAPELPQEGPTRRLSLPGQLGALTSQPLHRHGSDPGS
hERG (KCNH2), sequence (Q12809 whole entry): as above
CYP2D6, sequence (P10635 whole entry): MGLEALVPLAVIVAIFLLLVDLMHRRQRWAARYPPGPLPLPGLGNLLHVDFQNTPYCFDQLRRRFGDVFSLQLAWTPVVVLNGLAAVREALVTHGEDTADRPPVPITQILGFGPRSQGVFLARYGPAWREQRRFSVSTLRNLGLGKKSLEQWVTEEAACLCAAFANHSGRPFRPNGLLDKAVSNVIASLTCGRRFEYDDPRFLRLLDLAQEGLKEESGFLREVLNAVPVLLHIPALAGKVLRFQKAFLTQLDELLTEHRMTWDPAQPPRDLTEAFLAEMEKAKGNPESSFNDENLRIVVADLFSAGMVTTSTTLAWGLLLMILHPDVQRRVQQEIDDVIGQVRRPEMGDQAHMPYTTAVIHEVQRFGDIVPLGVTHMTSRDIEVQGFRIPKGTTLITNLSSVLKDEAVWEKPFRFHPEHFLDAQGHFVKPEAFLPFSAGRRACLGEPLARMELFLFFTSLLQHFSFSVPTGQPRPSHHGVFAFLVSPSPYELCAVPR
CYP2C9, sequence (P11712 whole entry): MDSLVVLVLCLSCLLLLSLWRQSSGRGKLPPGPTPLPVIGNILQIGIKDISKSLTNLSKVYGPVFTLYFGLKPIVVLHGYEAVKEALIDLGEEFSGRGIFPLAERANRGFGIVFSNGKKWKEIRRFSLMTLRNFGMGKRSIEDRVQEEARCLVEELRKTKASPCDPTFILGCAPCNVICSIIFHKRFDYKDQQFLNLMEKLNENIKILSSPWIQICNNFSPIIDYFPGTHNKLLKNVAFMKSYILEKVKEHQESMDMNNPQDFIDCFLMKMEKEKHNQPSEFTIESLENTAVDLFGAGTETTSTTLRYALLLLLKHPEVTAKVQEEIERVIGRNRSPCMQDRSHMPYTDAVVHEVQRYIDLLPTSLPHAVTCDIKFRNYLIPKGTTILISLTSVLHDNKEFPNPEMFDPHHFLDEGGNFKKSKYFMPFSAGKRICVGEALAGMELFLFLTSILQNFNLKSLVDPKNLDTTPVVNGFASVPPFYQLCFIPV
CYP2C19, sequence (P33261 whole entry): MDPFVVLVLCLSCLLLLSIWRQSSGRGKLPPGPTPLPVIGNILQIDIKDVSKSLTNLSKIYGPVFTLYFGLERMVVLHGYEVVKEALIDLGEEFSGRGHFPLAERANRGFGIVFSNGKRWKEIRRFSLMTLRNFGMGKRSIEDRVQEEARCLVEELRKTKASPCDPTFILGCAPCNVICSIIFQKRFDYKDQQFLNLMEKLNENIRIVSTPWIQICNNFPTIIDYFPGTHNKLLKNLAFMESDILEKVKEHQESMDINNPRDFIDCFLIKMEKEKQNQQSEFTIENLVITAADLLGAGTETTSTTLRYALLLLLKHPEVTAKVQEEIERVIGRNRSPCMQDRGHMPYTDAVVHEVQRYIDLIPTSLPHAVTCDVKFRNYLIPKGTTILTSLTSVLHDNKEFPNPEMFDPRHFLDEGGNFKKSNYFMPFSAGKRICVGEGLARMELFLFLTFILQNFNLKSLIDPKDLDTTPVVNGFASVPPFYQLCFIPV

Regarding `CCN1CC2(CCN(CCc3cc(F)ccc3F)CC2)O[C@H](C)C1=O`, in the data set on Mus musculus [1], the inhibition in vivo at 5 mg/kg worked out at 56%. The inhibition at 1 µM on CYP2C19, against CYP1A2, at CYP2C9, against CYP3A4 and at CYP2D6 was less than 50% throughout. Also, the Emax with Mus musculus [2] was determined as 40%; in the data set on Mus musculus [12] it was 64%. Also, the Activity result (in [3]; in data set [5]; in [8]; in the data set on HepG2 [9]; in the data set on HepG2 [11]; in data set [14]) was “Non-Toxic” each time. The Papp in data set [4] turned out to be 34.9 ×10⁻⁶ cm/s. Besides, the logD in data set [6] amounted to 2.7; in data set [15] it was 2. Besides, the solubility thermodynamic in data set [7] was 17.7 mg/mL (≈ 50.2 mM); in data set [16], 45.1 mg/mL (≈ 128 mM). Moreover, the microsomal CLint in [10] stood at 2.4 µL/min/mg. The same compound registered an inhibition at 10 µM against hERG (KCNH2) of less than 50%. The IC50 in data set [13] is greater than 10 µM. Also, the inhibition in data set [17] came to 21%.
